# Data from ChEMBL document CHEMBL1138366, “Conformational comparisons of a series of tachykinin peptide analogs” (J Med Chem, 2007).
# Residues, ends and D or L forms follow the SMILES beside them.
# Target: Substance-P receptor (Rattus norvegicus, UniProt P14600)
# Assay: Displacement of [125I]Lys3-substance P from rat NK1 receptor expressed in CHO cells
# Format: cell-based
# Sequence of Substance-P receptor (P14600 whole entry): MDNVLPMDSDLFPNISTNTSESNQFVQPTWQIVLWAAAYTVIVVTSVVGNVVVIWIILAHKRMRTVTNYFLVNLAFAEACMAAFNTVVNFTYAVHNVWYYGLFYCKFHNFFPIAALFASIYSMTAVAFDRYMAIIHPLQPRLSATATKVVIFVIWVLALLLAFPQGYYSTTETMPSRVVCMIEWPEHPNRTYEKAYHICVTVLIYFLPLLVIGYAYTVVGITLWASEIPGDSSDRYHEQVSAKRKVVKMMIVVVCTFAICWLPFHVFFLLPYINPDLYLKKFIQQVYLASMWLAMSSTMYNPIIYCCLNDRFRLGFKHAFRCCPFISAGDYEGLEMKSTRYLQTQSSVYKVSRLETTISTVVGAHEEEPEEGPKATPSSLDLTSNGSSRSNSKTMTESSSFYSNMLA
SMILES,IC50 (read-out: IC50),IC50 (read-out: Log IC50 (converted))
CC[C@H](C)[C@H](NC(=O)[C@H](Cc1ccccc1)NC(=O)[C@H](CO)NC(=O)[C@H](C)NC(=O)[C@@H]1CCCN1C(=O)[C@H](CC(N)=O)NC(=O)[C@@H](N)Cc1cnc[nH]1)C(=O)NCC(=O)N[C@@H](CC(C)C)C(=O)N[C@@H](CCSC)C(N)=O (H-HNPASFIGLM-NH2),,32.4 nM
CSCC[C@H](NC(=O)[C@H](CC(C)C)NC(=O)CNC(=O)[C@H](Cc1ccccc1)NC(=O)[C@H](Cc1ccccc1)NC(=O)[C@H](CCC(N)=O)NC(=O)[C@H](CCC(N)=O)NC(=O)[C@@H]1CCCN1C(=O)[C@H](CCCCN)NC(=O)[C@@H]1CCCN1)C(N)=O (H-PKPQQFFGLM-NH2),4.6 nM,
CSCC[C@H](NC(=O)[C@H](CC(C)C)NC(=O)CNC(=O)[C@H](Cc1ccccc1)NC(=O)[C@H](Cc1ccccc1)NC(=O)[C@H](CO)NC(=O)[C@H](C)NC(=O)[C@@H]1CCCN1C(=O)[C@H](CCCCN)NC(=O)[C@@H]1CCCN1C(=O)[C@@H](N)CCCN=C(N)N)C(N)=O (H-RPKPASFFGLM-NH2),21 nM,

# Further molecules by falling IC50 (read-out: IC50), results first:
IC50 (read-out: IC50),IC50 (read-out: Log IC50 (converted)),SMILES
4.1 nM,,CSCC[C@H](NC(=O)[C@H](CC(C)C)NC(=O)CNC(=O)[C@H](Cc1ccccc1)NC(=O)[C@H](Cc1ccccc1)NC(=O)[C@H](CO)NC(=O)[C@H](CCC(N)=O)NC(=O)[C@@H]1CCCN1C(=O)[C@H](CCCCN)NC(=O)[C@@H]1CCCN1C(=O)[C@@H](N)CCCN=C(N)N)C(N)=O
0.7 nM,,CSCC[C@H](NC(=O)[C@H](CC(C)C)NC(=O)CNC(=O)[C@H](Cc1ccccc1)NC(=O)[C@H](Cc1ccccc1)NC(=O)[C@H](CCC(N)=O)NC(=O)[C@H](C)NC(=O)[C@@H]1CCCN1C(=O)[C@H](CCCCN)NC(=O)[C@@H]1CCCN1C(=O)[C@@H](N)CCCNC(=N)N)C(N)=O
